Measurements: US8946426B2, “Substituted bicyclic heterocyclic compounds as gamma secretase modulators” (Janssen Pharmaceuticals, Inc., priority 2009, dated 2015)

Legend:
Aβtotal [1] = assay: In vivo efficacy: Aβtotal lowering in brain after single oral dose (Table 8); details: mouse brain soluble fraction, ELISA, compared to untreated animals
Excerpt: (§1) To determine whether acute administration of an Aβ42 lowering agent would reduce Aβ42 levels in vivo, non-transgenic rodents, e.g. mice or rats were used. Alternatively, two to three month old Tg2576 mice expressing APP695 containing the “Swedish” variant can be used or a transgenic mouse model developed by Dr. Fred Van Leuven (K.U.Leuven, Belgium) and co-workers, with neuron-specific expression of a clinical mutant of the human amyloid precursor protein [V7171] (Moechars et al., 1999 J. Biol. Chem. 274, 6483). Young transgenic mice have high levels of Aβ in the brain but no detectable Aβ deposition. At approximately 6-8 months of age, the transgenic mice start to display spontaneous, progressive accumulation of β-amyloid (Aβ) in the brain, eventually resulting in amyloid plaques within the subiculum, hippocampus and cortex. Animals treated with the Aβ42 lowering agent were examined and compared to those untreated or treated with vehicle and brain levels of soluble Aβ42 and total Aβ would be quantitated by standard techniques, for example, using ELISA. Treatment periods varied from hours to days and were adjusted based on the results of the Aβ42 lowering once a time course of onset of effect could be established.
(§2) A typical protocol for measuring Aβ42 lowering in vivo is shown but it is only one of many variations that could be used to optimize the levels of detectable Aβ. For example, Aβ42 lowering compounds were formulated in 20% of Captisol® (a sulfobutyl ether of β-cyclodextrin) in water or 20% hydroxypropyl β cyclodextrin. The Aβ42 lowering agents were administered as a single oral dose or by any acceptable route of administration to overnight fasted animals. After four hours, the animals were sacrificed and Aβ42 levels were analysed.
(§3) Blood was collected by decapitation and exsanguinations in EDTA-treated collection tubes. Blood was centrifuged at 1900 g for 10 min at 4° C. and the plasma recovered and flash frozen for later analysis. The brain was removed from the cranium and hindbrain. The cerebellum was removed and the left and right hemisphere were separated. The left hemisphere was stored at −18° C. for quantitative analysis of test compound levels. The right hemisphere was rinsed with phosphate-buffered saline (PBS) buffer and immediately frozen on dry ice and stored at −80° C. until homogenization for biochemical assays.
(§4) Mouse brains were resuspended in 10 volumes of 0.4% DEA (diethylamine)/50 mM NaCl pH 10 (for non-transgenic animals) or 0.1% 3-[(3-cholamidopropyl)-dimethyl-ammonio]-1-propanesulfonate (CHAPS) in tris buffered saline (TBS) (for transgenic animals) containing protease inhibitors (Roche-11873580001 or 04693159000 per gram of tissue, e.g. for 0.158 g brain, add 1.58 ml of 0.4% DEA. All samples were sonicated for 30 sec on ice at 20% power output (pulse mode). Homogenates were centrifuged at 221.300×g for 50 min. The resulting high speed supernatants were then transferred to fresh tubes and were optionally further purified before the next step. A portion of the supernatant was neutralized with 10% 0.5 M Tris-HCl and this was used to quantify Aβtotal.
(§5) The obtained supernatants were purified with Water Oasis HLB reverse phase columns (Waters Corp., Milford, Mass.) to remove non-specific immunoreactive material from the brain lysates prior subsequent Aβ detection. Using a vacuum manifold, all solutions were passed through the columns at a rate of approximately 1 ml per minute, so the vacuum pressure was adjusted accordingly throughout the procedure. Columns were preconditioned with 1 ml of 100% MeOH, before equilibration with 1 ml of H2O. Non-neutralized brain lysates were loaded onto the columns. The loaded samples were then washed twice with the first wash performed with 1 ml of 5% MeOH, and the second wash with 1 ml of 30% MeOH. Finally, the Aβ was eluted from the columns and into 100×30 mm glass tubes, with a solution of 90% MeOH with 2% NH4OH. […]

Aβ42 [2] = assay: Method 1: Aβ42 sandwich ELISA in supernatant of SKNBE2 cells carrying APP 695-wild type (Tables 7a, 7b); type: cell-based
How it was run: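 IC50 values were derived with a 4-parameter equation, fitting either percent inhibition or percent of compound-free Aβ42 as the control. The Aβ42 came from supernatants of APP695 wild-type SKNBE2 cells treated for 18 hours. It was measured by ELISA with anti-Aβ42 capture, biotinylated 3D6 and TMB absorbance at 450 nm.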

Aβtotal [3] = assay: Method 1: Aβtotal sandwich ELISA in supernatant of SKNBE2 cells carrying APP 695-wild type (Tables 7a, 7b); type: cell-based
How it was run: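 SKNBE2 cells expressing wild-type APP695 were exposed to compound for 18 Hours in Ultraculture with 1% glutamine. Aβtotal in the supernatant was read by 6E10-capture/biotinylated 4G8 sandwich ELISA with a fluorogenic peroxidase read-out, and WST-1 checked toxicity. IC50 came from a 4-parameter fit of percent inhibition or percent of control versus concentration.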

Aβ42 [4] = assay: In vivo efficacy: Aβ42 lowering in brain after single oral dose (Table 8); details: mouse brain soluble fraction, ELISA, compared to untreated animals
Excerpt: as §1, §2, §3, §4, §5

Aβtotal [5] = assay: Method 2: Aβtotal Alphalisa in supernatant of SKNBE2 cells carrying APP 695-wild type (Table 7c); type: cell-based; details: Method 2, Alphalisa, overnight incubation
Procedure: (§6) Screening was carried out using SKNBE2 cells carrying the APP 695-wild type, grown in Dulbecco's Modified Eagle's Medium/Nutrient mixture F-12 (DMEM/NUT-mix F-12) (HAM) provided by Invitrogen (cat no. 10371-029) containing 5% Serum/Fe supplemented with 1% non-essential amino acids, 1-glutamine 2 mM, Hepes 15 mM, penicillin 50 U/ml (units/ml) en streptomycin 50 μg/ml. Cells were grown to near confluency.
(§7) The screening was performed using a modification of the assay as described in Citron et al (1997) Nature Medicine 3: 67. Briefly, cells were plated in a 384-well plate at 10^4 cells/well in Ultraculture (Lonza, BE12-725F) supplemented with 1% glutamine (Invitrogen, 25030-024), 1% non-essential amino acid (NEAA), penicillin 50 U/ml en streptomycin 50 μg/ml in the presence of test compound at different test concentrations. The cell/compound mixture was incubated overnight at 37° C., 5% CO2. The next day the media were assayed by two sandwich immuno-assays, for Aβ42 and Aβtotal.
(§8) Aβtotal and Aβ42 concentrations were quantified in the cell supernatant using the Aphalisa technology (Perkin Elmer). Alphalisa is a sandwich assay using biotinylated antibody attached to streptavidin coated donorbeads and antibody conjugated to acceptor beads. In the presence of antigen, the beads come into close proximity. The excitation of the donor beads provokes the release of singlet oxygen molecules that trigger a cascade of energy transfer in the acceptor beads, resulting in light emission. To quantify the amount of Aβ42 in the cell supernatant, monoclonal antibody specific to the C-terminus of Aβ42 (JRF/cAβ42/26) was coupled to the receptor beads and biotinylated antibody specific to the N-terminus of Aβ (JRF/AβN/25) was used to react with the donor beads. To quantify the amount of Aβtotal in the cell supernatant, monoclonal antibody specific to the N-terminus of Aβ (JRF/AβN/25) was coupled to the receptor beads and biotinylated antibody specific to the mid region of Aβ (biotinylated 4G8) was used to react with the donor beads.
(§9) To obtain the values reported in Table 7c, the data were calculated as percentage of the maximum amount of amyloid Beta 42 measured in the absence of the test compound. The sigmoidal dose response curves were analyzed using non-linear regression analysis with percentage of the control plotted against the log concentration of the compound. A 4-parameter equation was used to determine the IC50.

Aβ42 [6] = assay: Method 2: Aβ42 Alphalisa in supernatant of SKNBE2 cells carrying APP 695-wild type (Table 7c); type: cell-based; details: Method 2, Alphalisa, overnight incubation
Procedure: as §6, §7, §8, §9

[7] = Table 7b, averaged IC50, non-linear regression of percentage of control vs log concentration, 4-parameter equation
[8] = Table 7a, SKNBE2 cells, compounds 18 h, XLfit 4-parameter fit of percent inhibition, top/bottom fixed to 100/0, hill slope 1
[9] = Homo sapiens, SKNBE2, Table 7b, averaged IC50, non-linear regression of percentage of control vs log concentration, 4-parameter equation
[10] = Homo sapiens, Table 7a, SKNBE2 cells, compounds 18 h, XLfit 4-parameter fit of percent inhibition, top/bottom fixed to 100/0, hill slope 1

Structure (SMILES)	IC50 (Aβ42 [2]; [7])	IC50 (Aβtotal [3]; [7])	Aβtotal (% Ctrl)_Mean (Aβtotal [1])	Aβ42 (% Ctrl)_Mean (Aβ42 [4])	also measured
COc1cccc(-c2nc3c(Nc4ccc(-c5cnc(C)o5)c(OC)c4)cccc3n2C)c1 [Compound 63]	11 nM	> 3000 nM	90 % Ctrl	56 % Ctrl	
COc1cc(Nc2cc(F)cc3c2nc(N2CCCC2)n3C)ccc1-c1cnc(C)o1 [Compound 104]			97 % Ctrl	110 % Ctrl	IC50 (Aβtotal [5]): > 10000 nM; IC50 (Aβ42 [6]): 501 nM
COc1cc(Nc2cccc3c2nc(-c2ccc(F)cc2)n3C(C)C)ccc1-c1cnc(C)o1.Cl.Cl [Compound 25]	23 nM	> 3000 nM	96 % Ctrl	76 % Ctrl	IC50 (Aβ42 [2]; [8]): 24 nM; IC50 (Aβtotal [3]; [8]): > 3000 nM
Cc1ncc(-c2ccc(Nc3cc(C(F)(F)F)cc4c3nc(-c3ccc(F)cc3)n4C)cn2)o1 [Compound 101]			92 % Ctrl	77 % Ctrl	IC50 (Aβtotal [5]): > 10000 nM; IC50 (Aβ42 [6]): 46 nM
COc1cc(Nc2cccn3cc(-c4ccc(F)cc4)nc23)ccc1-c1ocnc1C [Compound 1]					melting point: 163.2 °C; IC50 (Aβ42 [2]; [9]): 200 nM; IC50 (Aβ42 [2]; [10]): 203 nM; IC50 (Aβtotal [3]; [9]): > 5000 nM; IC50 (Aβtotal [3]; [10]): > 5000 nM
Cc1ncc(-c2ccc(Nc3cc(C(F)(F)F)cn4cc(C(=O)N(C)C)nc34)cc2F)o1 [Compound 181]	> 3000 nM	> 3000 nM	105 % Ctrl	104 % Ctrl	
COc1cc(Nc2cccn3cc(-c4ccc(F)cc4)nc23)ccc1-c1cnc(C)o1 [Compound 3]					melting point: 219.1 °C; IC50 (Aβ42 [2]; [9]): 178 nM; IC50 (Aβ42 [2]; [10]): 196 nM; IC50 (Aβtotal [3]; [9]): > 10000 nM; IC50 (Aβtotal [3]; [10]): > 10000 nM
COc1cccc(-c2nc3c(Nc4ccc(-c5ocnc5C)c(OC)c4)cccn3c2C)c1 [Compound 2]			104 % Ctrl	95 % Ctrl	IC50 (Aβ42 [2]; [9]): 20 nM; IC50 (Aβ42 [2]; [10]): 22 nM; IC50 (Aβtotal [3]; [9]): > 3000 nM; IC50 (Aβtotal [3]; [10]): > 3000 nM

Continued, in another order:

IC50 (Aβ42 [2]; [7])	IC50 (Aβtotal [3]; [7])	Structure (SMILES)	Aβtotal (% Ctrl)_Mean (Aβtotal [1])	Aβ42 (% Ctrl)_Mean (Aβ42 [4])	also measured
126 nM	> 3000 nM	COc1ccc(C)c(-c2cn3cccc(Nc4ccc(-c5cnc(C)o5)c(F)c4)c3n2)c1 [Compound 41]	87 % Ctrl	93 % Ctrl	
240 nM	> 10000 nM	Cc1cc2c(nc(-c3ccc(F)cc3)n2C)c(Nc2ccc(-c3cnc(C)o3)cc2)n1 [Compound 58]	105 % Ctrl	89 % Ctrl	
251 nM	> 10000 nM	COc1cc(Nc2cc(C(F)(F)F)cn3cc(C)nc23)ccc1-c1ocnc1C.Cl.Cl [Compound 141]	89 % Ctrl	87 % Ctrl	
